{
  "source": "patent US20260167673A1",
  "about": "“NOVEL POLYPEPTIDE, POLYPEPTIDE DERIVATIVE AND USE THEREOF” (NANJING ANJI BIOTECHNOLOGY CO., LTD., priority 2023, published 2026)",
  "assay_type_in_all_cases": "cell-based",
  "key": {"[1]": {"tested_on": "human malignant melanoma cells A375", "assay": "CCK8 proliferation inhibition, A375", "settings": "A375, 50 μM, 48 h", "description": "(§1) Incubation was continued for 4 h in a cell incubator, an absorbance was measured at 450 nm, and a proliferation inhibition was calculated. Data was presented as mean±SD, and GraphPad Prism 5.0 statistical software was used. A t-test was used for comparison between two groups, while One-way Anova (Dunnett) was used for comparison among a plurality of groups."}, "[2]": {"tested_on": "human fibrosarcoma cells HT-1080", "assay": "CCK8 proliferation inhibition, HT-1080", "settings": "HT-1080, 50 μM, 48 h", "description": "as §1"}, "[3]": {"tested_on": "human acute lymphoblastic leukemia cells CEM/C1", "assay": "CCK8 proliferation inhibition, CEM/C1", "settings": "CEM/C1, 50 μM, 48 h", "description": "as §1"}, "[4]": {"tested_on": "human colon cancer cells HT29", "assay": "CCK8 proliferation inhibition, HT29", "settings": "HT29, 50 μM, 48 h", "description": "as §1"}, "[5]": {"tested_on": "human breast cancer cells SK-BR-3", "assay": "CCK8 proliferation inhibition, SK-BR-3", "settings": "SK-BR-3, 50 μM, 48 h", "description": "as §1"}, "[6]": {"tested_on": "human lung cancer A549 cells", "assay": "Transwell metastasis inhibition, A549", "settings": "48 h", "description": "(§2) Melanoma, cervical cancer, ovarian cancer, liver cancer, and lung cancer cells were seeded into transwell chambers, with 100 μL per well. Different doses of the HMMW micropeptide and the novel polypeptide HMMW15-51 were added to each chamber as a treatment group, while no drug was added to a blank group. Then, 0.6 mL of a complete culture medium containing 10% FBS was added to the lower chambers of the transwell to stimulate cell metastasis, and the cells were cultured at 5% CO2 and 37° C. for 48 h. The culture solution was discarded from the wells. The cells were fixed with methanol at room temperature for 30 min, stained with 0.1% crystal violet at room temperature for 10 min, and rinsed with clean water. The upper layer nonmetastatic cells were wiped off with a cotton swab. The cells were observed under a microscope, and four fields of view were selected to take photos and count the cells. A metastasis inhibition (MI) was calculated according to a formula: […]\n(§3) where Ntest represents the number of cell metastases in the treatment group, and Ncontrol represents the number of cell metastases in the blank control group.\n(§4) Data was presented as mean±SD, and GraphPad Prism 5.0 statistical software was used."}, "[7]": {"tested_on": "human peripheral blood B lymphocytes RPMI 8226 in multiple myeloma", "assay": "CCK8 proliferation inhibition, RPMI 8226", "settings": "RPMI 8226, 50 μM, 48 h", "description": "as §1"}, "[8]": {"tested_on": "human cervical cancer Hela cells", "assay": "Transwell metastasis inhibition, Hela", "settings": "50 μmol/L, 48 h", "description": "as §2, §3, §4"}, "[9]": {"tested_on": "human kidney cancer cells Ketr-3", "assay": "CCK8 proliferation inhibition, Ketr-3", "settings": "Ketr-3, 50 μM, 48 h", "description": "as §1"}, "[10]": {"tested_on": "human prostate cancer cells 22RV1", "assay": "CCK8 proliferation inhibition, 22RV1", "settings": "22RV1, 50 μM, 48 h", "description": "as §1"}, "[11]": {"tested_on": "human lymphoma cells Raji", "assay": "CCK8 proliferation inhibition, Raji", "settings": "50 μM, 48 h", "description": "as §1"}, "[12]": {"tested_on": "human lung squamous cell carcinoma cells SK-MES-1", "assay": "CCK8 proliferation inhibition, SK-MES-1", "settings": "SK-MES-1, 50 μM, 48 h", "description": "as §1"}, "[13]": {"tested_on": "human acute myeloid leukemia cells KG-1", "assay": "CCK8 proliferation inhibition, KG-1", "settings": "KG-1, 50 μM, 48 h", "description": "as §1"}, "[14]": {"tested_on": "human gastric cancer cells BGC-823", "assay": "CCK8 proliferation inhibition, BGC-823", "settings": "BGC-823, 50 μM, 48 h", "description": "as §1"}, "[15]": {"tested_on": "human breast cancer cells MDA-MB-231", "assay": "CCK8 proliferation inhibition, MDA-MB-231", "settings": "MDA-MB-231, 50 μM, 48 h", "description": "as §1"}, "[16]": {"tested_on": "human bladder cancer cells EJ", "assay": "CCK8 proliferation inhibition, EJ", "settings": "50 μM, 48 h", "description": "as §1"}, "[17]": {"tested_on": "human promyelocytic leukemia cells HL60", "assay": "CCK8 proliferation inhibition, HL60", "settings": "HL60, 50 μM, 48 h", "description": "as §1"}, "[18]": {"tested_on": "human nasopharyngeal carcinoma cells CNE-2Z", "assay": "CCK8 proliferation inhibition, CNE-2Z", "settings": "50 μM, 48 h", "description": "as §1"}, "[19]": {"tested_on": "human esophageal cancer cells Eca-109", "assay": "CCK8 proliferation inhibition, Eca-109", "settings": "Eca-109, 50 μM, 48 h", "description": "as §1"}, "[20]": {"tested_on": "human multiple myeloma cells LP-1", "assay": "CCK8 proliferation inhibition, LP-1", "settings": "LP-1, 50 μM, 48 h", "description": "as §1"}, "[21]": {"tested_on": "human histiocytic lymphoma cells U937", "assay": "CCK8 proliferation inhibition, U937", "settings": "U937, 50 μM, 48 h", "description": "as §1"}, "[22]": {"tested_on": "human tongue squamous cell carcinoma cells CAL27", "assay": "CCK8 proliferation inhibition, CAL27 (Example 5)", "settings": "CAL27, 50 μM, 48 h", "description": "as §1"}, "[23]": {"tested_on": "human ileocecal cancer cells HCT-8", "assay": "CCK8 proliferation inhibition, HCT-8", "settings": "HCT-8, 50 μM, 48 h", "description": "as §1"}, "[24]": {"tested_on": "human laryngeal epidermoid carcinoma cells HEp2", "assay": "CCK8 proliferation inhibition, HEp2", "settings": "HEp2, 50 μM, 48 h", "description": "as §1"}, "[25]": {"tested_on": "human tongue squamous cell carcinoma CAL27 cells", "settings": "CAL27, 80 μM, 48 h", "description": "After incubation was continued for 48 h, add 100 μL of CCK8 solution to each well of the 96-well plate."}, "[26]": {"tested_on": "human cervical cancer cells Hela", "assay": "CCK8 proliferation inhibition, Hela", "settings": "50 μM, 48 h", "description": "as §1"}},
  "note": "Read-outs that look alike come from different tables or passages of the source. Marks after values point to notes of the source that are not given here. Where no end group is shown, it is not given here.",
  "data": [
    {"sequence": "MERAGVPGFSPRRSSVEAKMQSTSCSVRKSSTVTAWPAVVLLLSWGQRRGG [HMMW]", "values": [
      {"measurement": "Inhibition (%)", "setting": "[1]", "value": "49.572 ± 4.128", "unit": "%"},
      {"measurement": "OD", "setting": "[1]", "value": "0.491 ± 0.040"},
      {"measurement": "Inhibition (%)", "setting": "[2]", "value": "53.092 ± 4.138", "unit": "%"},
      {"measurement": "OD", "setting": "[2]", "value": "0.432 ± 0.038"},
      {"measurement": "Inhibition (%)", "setting": "[3]", "value": "46.518 ± 1.484", "unit": "%"},
      {"measurement": "OD", "setting": "[3]", "value": "0.630 ± 0.017"},
      {"measurement": "Inhibition (%)", "setting": "[4]", "value": "50.805 ± 2.422", "unit": "%"},
      {"measurement": "OD", "setting": "[4]", "value": "0.479 ± 0.024"},
      {"measurement": "Inhibition (%)", "setting": "[5]", "value": "53.710 ± 4.902", "unit": "%"},
      {"measurement": "OD", "setting": "[5]", "value": "0.507 ± 0.054"},
      {"measurement": "Number of cell metastases", "setting": "[6]; A549, 50 μmol/L", "value": "33 ± 20.50"},
      {"measurement": "Inhibition (%)", "setting": "[6]; A549 metastasis, 50 μmol/L", "value": "94.57*** %"},
      {"measurement": "Inhibition (%)", "setting": "[7]", "value": "52.930 ± 4.562", "unit": "%"},
      {"measurement": "OD", "setting": "[7]", "value": "0.578 ± 0.056"},
      {"measurement": "Inhibition (%)", "setting": "[8]; Hela metastasis", "value": "88.80*** %"},
      {"measurement": "Number of cell metastases", "setting": "[8]; Hela", "value": "115 ± 20.32"},
      {"measurement": "Inhibition (%)", "setting": "[9]", "value": "48.708 ± 4.852", "unit": "%"},
      {"measurement": "OD", "setting": "[9]", "value": "0.476 ± 0.045"},
      {"measurement": "Inhibition (%)", "setting": "[10]", "value": "50.463 ± 1.693", "unit": "%"},
      {"measurement": "OD", "setting": "[10]", "value": "0.552 ± 0.019"},
      {"measurement": "Inhibition (%)", "setting": "[11]", "value": "54.560 ± 3.675", "unit": "%"},
      {"measurement": "OD", "setting": "[11]", "value": "0.576 ± 0.047"},
      {"measurement": "Inhibition (%)", "setting": "[12]", "value": "54.910 ± 4.426", "unit": "%"},
      {"measurement": "OD", "setting": "[12]", "value": "0.435 ± 0.043"},
      {"measurement": "Inhibition (%)", "setting": "[13]", "value": "37.600 ± 5.989", "unit": "%"},
      {"measurement": "OD", "setting": "[13]", "value": "0.725 ± 0.070"},
      {"measurement": "Inhibition (%)", "setting": "[14]", "value": "47.730 ± 4.739", "unit": "%"},
      {"measurement": "OD", "setting": "[14]", "value": "0.510 ± 0.046"},
      {"measurement": "Inhibition (%)", "setting": "[15]", "value": "65.216 ± 4.512", "unit": "%"},
      {"measurement": "OD", "setting": "[15]", "value": "0.429 ± 0.056"},
      {"measurement": "Inhibition (%)", "setting": "[16]", "value": "47.820 ± 1.486", "unit": "%"},
      {"measurement": "OD", "setting": "[16]", "value": "0.638 ± 0.018"},
      {"measurement": "Inhibition (%)", "setting": "[17]", "value": "47.264 ± 5.692", "unit": "%"},
      {"measurement": "OD", "setting": "[17]", "value": "0.578 ± 0.062"},
      {"measurement": "Inhibition (%)", "setting": "[18]", "value": "50.952 ± 4.312", "unit": "%"},
      {"measurement": "OD", "setting": "[18]", "value": "0.472 ± 0.042"},
      {"measurement": "Inhibition (%)", "setting": "[19]", "value": "63.071 ± 2.982", "unit": "%"},
      {"measurement": "OD", "setting": "[19]", "value": "0.350 ± 0.028"},
      {"measurement": "Inhibition (%)", "setting": "[20]", "value": "47.561 ± 4.259", "unit": "%"},
      {"measurement": "OD", "setting": "[20]", "value": "0.462 ± 0.038"},
      {"measurement": "Inhibition (%)", "setting": "[21]", "value": "36.042 ± 2.134", "unit": "%"},
      {"measurement": "OD", "setting": "[21]", "value": "0.855 ± 0.029"},
      {"measurement": "Inhibition (%)", "setting": "[22]", "value": "67.115 ± 5.457", "unit": "%"},
      {"measurement": "OD", "setting": "[22]", "value": "0.383 ± 0.064"},
      {"measurement": "Inhibition (%)", "setting": "[23]", "value": "48.687 ± 3.785", "unit": "%"},
      {"measurement": "OD", "setting": "[23]", "value": "0.482 ± 0.036"},
      {"measurement": "Inhibition (%)", "setting": "[24]", "value": "42.416 ± 2.236", "unit": "%"},
      {"measurement": "OD", "setting": "[24]", "value": "0.504 ± 0.020"},
      {"measurement": "OD", "setting": "[25]; Table 1, deletion mutants", "value": "0.260 ± 0.098"},
      {"measurement": "OD", "setting": "[25]; Table 2, truncated fragments", "value": "0.351 ± 0.078"},
      {"measurement": "Inhibition (%)", "setting": "[26]", "value": "52.644 ± 4.018", "unit": "%"},
      {"measurement": "OD", "setting": "[26]", "value": "0.493 ± 0.049"}
    ]}
  ]
}
